# According to article PMC6753678, “Fueling Open Innovation for Malaria Transmission-Blocking Drugs: Hundreds of Molecules Targeting Early Parasite Mosquito Stages” (Frontiers in Microbiology, 2019):
# Columns and labels:
# [1] = tested on: P. falciparum late stage (stages IV-V) gametocytes; parameters: method as in Almela et al 2016; details: P. falciparum late stage gametocyte ATP assay, TCAMS screen; ref Almela et al 2016; read-out: Pf GCT ATP IC50; cited from earlier work
# [2] = tested on: P. falciparum late stage (stages IV-V) gametocytes; experiment: P. falciparum late stage gametocyte ATP depletion assay (Pf GC-ATP); details: 1: YES; 0: NO; >10-fold selectivity over cytotoxicity
# HepG2 cells = experiment: HepG2 cytotoxicity assay; details: HepG2 cytotoxicity unified across screens; >25 set to 25.00
# Summary of the method: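 Cells are plated at 2,500 per well on compound-treated plates in MEM containing 10% fetal bovine serum and 1% NEAA, then incubated 48 h at 37°C.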
Structure (SMILES),IC50 [1] [nM],Is compound selective in assay? Pf GC-ATP active? [2],Unified cytotox (HepG2 cells) [µM]
Cc1cccc2nc(-c3ccc(-c4cccc(CNCCN5CCNCC5)c4)cc3)[nH]c12 [TCMDC-132867],840,1 (1: YES),13.40
Cc1cccc2nc(-c3cccc(-c4cccc(CNCCN5CCNCC5)c4)c3)[nH]c12.O=C(O)C(F)(F)F [TCMDC-132873],500,1 (1: YES),7.76
CN1CCN(c2nsc3ccc(-c4ccc(NC(=O)Nc5cc(C(F)(F)F)ccc5F)cc4)cc23)CC1.O=C(O)C(F)(F)F [TCMDC-133435],7520,0 (0: NO),6.40
O=C(Nc1ccc(Cl)c(Cl)c1)Nc1ccccc1N1CCNCC1.O=C(O)C(F)(F)F [TCMDC-133727],7420,0 (0: NO),11.20
NC1CCN(Cc2ccc(-c3ccc(-c4nc5cc(F)ccc5[nH]4)cc3)cc2)C1.O=C(O)C(F)(F)F (stereo not drawn) [TCMDC-133872],830,0 (0: NO),7.25
O=C(O)C(F)(F)F.c1cc(CN2CCC(CCN3CCCCC3)CC2)cc(-c2cccc(-c3nc4ccccc4[nH]3)c2)c1 [TCMDC-133920],290,1 (1: YES),13.10
Cc1cccc2nc(-c3ccc(-c4cccc(CN5CCC(CCN6CCCCC6)CC5)c4)s3)[nH]c12.O=C(O)C(F)(F)F [TCMDC-133923],460,0 (0: NO),3.87
Cc1cccc2nc(-c3ccc(-c4ccc(CN5CCC(CCN6CCCCC6)CC5)cc4)cc3)[nH]c12.O=C(O)C(F)(F)F [TCMDC-133929],270,1 (1: YES),3.70
Fc1ccc2[nH]c(-c3ccc(-c4ccc(CN5CCC(CCN6CCCCC6)CC5)cc4)s3)nc2c1.O=C(O)C(F)(F)F [TCMDC-133932],140,1 (1: YES),3.79
COc1ccc(-c2cnn3ccc(Nc4cc(OC)c(OC)c(OC)c4)nc23)cc1OC [TCMDC-134383],1620,0 (0: NO),12.90
CCc1ccc(CN2CCC(CNC(=O)c3cc(-c4cccc(F)c4)cs3)C2)cc1.O=C(O)C(F)(F)F (stereo not drawn) [TCMDC-134432],1260,0 (0: NO),7.22
COc1ccccc1CCNc1nc(C)cc(N[C@@H](Cc2ccccc2)C(=O)NCc2cccc(F)c2)n1.O=C(O)C(F)(F)F [TCMDC-134893],5300,0 (0: NO),6.30
CC(C)(C)OC(=O)NCc1ccc(Nc2nnc(-c3ccc(OCC(=O)NCc4ccc(C(C)(C)C)cc4)c([N+](=O)[O-])c3)o2)cc1 [TCMDC-134991],700,0 (0: NO),3.15
CN1CCN(CC2(Nc3nccc(NCCc4cn(C)c5ccccc45)n3)CCCCC2)CC1 [TCMDC-135122],700,0 (0: NO),6.94
COc1cc(NC(=O)c2sc(-c3ccc(Cl)cc3)cc2NC(=O)c2ccncc2)ccc1OCCN1CCCC1 [TCMDC-135398],150,1 (1: YES),3.23
CCN(CC)CCCNc1nccc(N2CCc3ncnc(Nc4ccc(OCc5cccc(F)c5)c(Cl)c4)c3C2)n1 [TCMDC-135406],720,0 (0: NO),5.58
COc1cc2ccccc2cc1OCCCN1CCN(CC(c2ccc(F)cc2)N2CCN(C(C)C)CC2)CC1.Cl (stereo not drawn) [TCMDC-135496],1250,0 (0: NO),3.72
COC(=O)c1sc(-c2ccc(Cl)cc2)cc1N(CCCN1CCC(N2CCCCC2)CC1)S(=O)(=O)c1ccc(C)cc1 [TCMDC-135561],3360,0 (0: NO),4.37
CC(C)(C)N1CCC(N(Cc2ccc(-c3ccc(C(F)(F)F)cc3)cc2)C(=O)Cn2c(CCc3cccc(F)c3F)cc(=O)c3cccnc32)CC1.O=C(O)C(O)C(O)C(=O)O [TCMDC-136011],2390,0 (0: NO),3.10
CCn1c(-c2nonc2N)nc2c(-c3cccc(NC(=O)Nc4ccccc4OC)c3)ncc(OCCCN)c21.O=C(O)C(F)(F)F [TCMDC-136190],440,1 (1: YES),5.90
CCn1c(-c2nonc2N)nc2c(-c3cccc(NC(=O)Nc4cccc(C#N)c4)c3)ncc(OCCCN)c21.O=C(O)C(F)(F)F [TCMDC-136195],3510,0 (0: NO),24.70

Structure (SMILES),IC50 [1] [nM],Is compound selective in assay? Pf GC-ATP active? [2],Unified cytotox (HepG2 cells) [µM]
Cl.NCCCOc1cnc(-c2ccccc2)c2nc(-c3nonc3N)n(CCc3ccccc3)c12 [TCMDC-136216],1400,0 (0: NO),5.61
O=C(Nc1ccc(F)c(C(F)(F)F)c1)NC1CCN(CCCCCNC(=O)C2CC2c2ccc(Cl)c(Cl)c2)CC1 (stereo not drawn) [TCMDC-136259],4350,0 (0: NO),6.40
C[C@H]1CN(Cc2cccc(-c3cc(CNC(=O)c4cccc(CC5CCN(C)CC5)c4)ccc3F)c2)CCN1C [TCMDC-136349],850,0 (0: NO),6.97
COc1cc(Br)c(S(=O)(=O)n2cc(CN3CCC(N)CC3)c3cc(Cl)ccc32)cc1OC.O=C(O)C(F)(F)F [TCMDC-136384],2420,0 (0: NO),6.70
CN(C)Cc1ccc(-c2cccc(Nc3nccc(NCC(O)c4ccccc4)n3)c2)cc1 (stereo not drawn) [TCMDC-136467],900,0 (0: NO),5.87
Fc1ccc(N(c2nc(-c3cc(F)cc(C(F)(F)F)c3)cs2)C2CCNCC2)cc1.O=C(O)C(F)(F)F [TCMDC-136656],3280,0 (0: NO),6.60
CN(C)CCNC(=O)c1ccc(-c2cnc3ccc(NCc4ccc(Cl)c(Cl)c4)nn23)cc1 [TCMDC-136678],330,1 (1: YES),16.66
CCNCc1cccc(-c2ccc3ccnc(N)c3c2)c1 [TCMDC-136869],1660,0 (0: NO),12.50
FC(F)c1nc2ccccc2n1-c1nc(N2CCOCC2)nc(N2CCOCC2)n1 [TCMDC-137004],5440,0 (0: NO),1.58
CS(=O)(=O)O.FC(F)(F)COc1c(CCNCCCCNCCc2ccc3ccccc3c2OCC(F)(F)F)ccc2ccccc12 [TCMDC-137169],100,1 (1: YES),2.80
CCN(CC)CCOc1ccc(C(O)(C#CC(O)(c2ccccc2)c2ccc(OCCN(CC)CC)cc2)c2ccccc2)cc1 (stereo not drawn) [TCMDC-137197],690,0 (0: NO),3.67
CCN(CC)CCOc1ccc(C(O)(C#CC(O)(c2ccc(C)cc2)c2ccc(OCCN(CC)CC)cc2)c2ccc(C)cc2)cc1 (stereo not drawn) [TCMDC-137198],140,1 (1: YES),1.62
CCN(CC)CCOc1ccc(C(O)(C#CC(O)(c2ccc(OCCN(CC)CC)cc2)c2ccc([N+](=O)[O-])cc2)c2ccc([N+](=O)[O-])cc2)cc1 (stereo not drawn) [TCMDC-137201],220,1 (1: YES),6.20
CCc1cc(COc2ccc(CNCCC(C)C)cc2I)c(OCc2ccccc2)c(COc2ccc(CNCCC(C)C)cc2I)c1.Cl [TCMDC-137255],1020,0 (0: NO),5.80
CC(C)CCNCc1ccc(OCc2cccc(COc3ccc(CNCCC(C)C)cc3I)c2)c(I)c1.Cl [TCMDC-137274],370,1 (1: YES),5.30
Cl.N=C(NCCCc1ccccc1)c1cccc(C(=N)NCCCc2ccccc2)n1 [TCMDC-137453],310,1 (1: YES),12.80
COc1cc(CCNC(=N)/C=C/c2ccc(Cl)cc2)ccc1Cl.Cl [TCMDC-137457],280,1 (1: YES),14.00
CCCCN(CCCC)CCCCNc1c2ccccc2nc2ccccc12.Cl [TCMDC-137461],550,1 (1: YES),19.00
COc1ccc2nc3cc(Cl)ccc3c(NCCN3CCN(C)CC3)c2c1 [TCMDC-137476],1880,1 (1: YES),19.33
CN1CCN(CCCCNc2c3ccccc3nc3ccccc23)CC1 [TCMDC-137479],1320,0 (0: NO),3.39
Br.C=CCNC(CCCCC)c1ccc(OCCOc2ccc(C(CCCCC)NCC=C)cc2)cc1 (stereo not drawn) [TCMDC-137483],910,0 (0: NO),5.80
